Experimental data taken from patent US9446116B2, “Peptide sequences and compositions” (priority 2006, dated 2016).

How the values were obtained:
primary splenocytes = type: cell-based, C57BL/6-Tg(HLA-A2.1)1Enge/J mice; conditions: stimulation with P6 (data not shown)
Influenza A/PR/8/34 = type: in vivo, C57BL/6-Tg(HLA-A2.1)1Enge/J mice

Substance | IL-4 production (primary splenocytes) | succumbed to infection (mortality) (Influenza A/PR/8/34; CD8 depletion (anti-CD8 sera days 19 and 22), […], FIG. 3A) [%] | mortality rate (Influenza A/PR/8/34; absence of CD8 depletion (irrelevant sera), FIG. 3B) [%]
IIGILHLILWILDRLFFKCIYRLF [P6] | failure of stimulation with P6 to induce any IL-4 production | – | –
NRP-v: Lysozyme (Sigma) denatured by boiling, used as the control non relevant preparation | – | 100 | 100
